Test results reported in article PMC5573420, “Correlation between human ether‐a‐go‐go‐related gene channel inhibition and action potential prolongation” (British Journal of Pharmacology, 2017).
Entries after “also recorded” stand apart in the source; their conditions may differ.

Experiments:
hERG potassium channels = settings: read-out: Ki binding studies; radioligand binding; ref Shagufta et al 2009; cited from earlier work
hiPSC-CMs = assay: Optical measurement of action potential duration (APD90) in hiPSC-CMs using voltage-sensitive dye di-4-ANEPPS
Method: The plates were then incubated at 37°C, 5% CO2. Forty‐eight hours post‐thaw, 100% of the plating medium was replaced with CDI Maintenance Medium (CDI, CMC‐100‐120‐001), and further, 100% media changes were performed every 2 days after that.
Afterwards, the medium containing VSD was replaced by fresh serum‐free medium, and the cells were returned to the incubator. The multi‐well plate was placed in an environmentally controlled stage incubator (37°C, 5% CO2, water‐saturated air atmosphere) (Okolab Inc, Burlingame, CA, USA) of the CelIOPTIQ platform (Clyde Biosciences Ltd, Glasgow, Scotland). The di‐4‐ANEPPS fluorescence signal was recorded from a 0.2 × 0.2 mm area using a 40× (NA 0.6) objective lens. Excitation wavelength was 470 ± 10 nm using a light‐emitting diode (LED), and emitted light was collected by two photomultipliers (PMTs) at 510–560 and 590–650 nm respectively. LED, PMT, associated power supplies and amplifiers were supplied by Cairn Research Ltd (Kent, UK). […] A 20 s recording was then taken 30 min after exposure to the drug or vehicle with only one concentration applied per well. The records were subsequently analysed offline using proprietary software (CellOPTIQ). The procedure was repeated from four to five times, and parallel matched control (vehicle) measurements were taken on cardiomyocytes with equivalent concentrations of vehicle (DMSO). AP parameters were measured, including APD at 50, 75 and 90% repolarization (APD50, APD75 and APD90 respectively). Data are given as % change from control for the treated groups (vehicle, control and drug). This allowed a single comparison to be made at each concentration, and every experiment was performed with its own set of controls (vehicle). No data were used more than once.

[1] = molecular target: Cav1.2 (rabbit α1-subunit with β2a and α2-δ1) (Oryctolagus cuniculus, UniProt P15381); assay: in vitro; settings: rabbit, pH 7.4, Cav1.2 IC50 (peak IBa inhibition)
Method: (§1) The transfection of tsA‐201 cells was performed using the FUGENE6 Transfection Reagent (Roche Diagonstics GmbH, Mannheim, Germany) following standard protocols. The tsA‐201 cells were used until passage number 15. […] The extracellular bath solution (in mM: BaCl2 20, MgCl2 1, HEPES 10, choline‐Cl 90) was titrated to pH 7.4 with methanesulfonic acid. […] The drugs were applied to cells under voltage clamp using a microminifold perfusion system. Ca^2+ channel block was estimated as peak IBa inhibition during a train of short (50 ms) test pulses from −80 mV at a frequency of 0.2 Hz. Patch clamp experiments to study hERG, Nav1.5 and Cav1.2 currents were performed at room temperature (22–25°C). All data were digitized and saved to disc. Current traces were filtered at 5 kHz and sampled at 10 kHz. The pClamp software package (Version 7.0 Axon Instruments, Inc.) was used for data acquisition and preliminary analysis. Microcal Origin 7.0 was used for analysis, and sigmoidal curves were fitted using the Hill equation.
(§2) Use‐dependent channel inhibition was studied during trains of 1 Hz and 50 ms test pulses (from −80 to +10 mV). After the application of 20 test pulses in control (absence of drug), the cells were incubated for 3 min with drug at rest. Peak current inhibition during the first pulse (1st, Figure 6C) in the presence of the drug reflects ‘resting state’ block. Additional current inhibition during a subsequently applied pulse train illustrates use‐dependent block. Peak current inhibition in control and drug are compared in Figure 6D.

[2] = molecular target: rabbit CaV1.2 α1-subunit with β2a and α2-δ1 (Oryctolagus cuniculus, UniProt P15381); assay: Barium current (IBa) inhibition through Cav1.2 in transfected tsA-201 cells, manual patch clamp
Method: as §1, §2

Nav1.5 = Nav1.5 (Homo sapiens, UniProt Q14524); assay: Sodium current inhibition in HEK cells stably expressing Nav1.5, planar patch clamp; settings: for IC50: Nav1.5 IC50 (peak INa inhibition)
Method: (§3) Currents were low‐pass filtered at 10 kHz using the internal Bessel filter and sampled at 25 kHz. The extracellular solution for hERG current recording contained 140 mM NaCl, 4 mM KCl, 2 mM CaCl2, 1 mM MgCl2,5 mM D‐glucose and 10 mM HEPES (pH 7.4) (Sigma‐Aldrich). The intracellular solution for hERG current recording contained 50 mM KCl, 10 mM NaCl, 60 mM KF, 20 mM EGTA and 10 mM HEPES (pH 7.2). The extracellular solution for measuring sodium currents in HEK cells stably expressing the human clone of Nav1.5 (GenBank M77235) contained 4 mM KCl, 20 mM NaCl, 1.8 mM CaCl2, 0.75 mM MgCl2, 5 mM HEPES, 120 mM choline chloride and pH 7.4 using NaOH. The intracellular solution for sodium current recording contained 120 mM CsF, 20 mM CsCl, 5 mM EGTA, 5 mM HEPES and pH 7.4 using CsOH. All chemicals were obtained from Sigma‐Aldrich Chemie GmbH (Taufkirchen, Germany). The compound solutions were applied by means of the automated NPC‐16 Patchliner planar patch‐clamp platform.

hERG channels = hERG channels (Homo sapiens, UniProt Q12809); assay: hERG current inhibition, automated planar patch clamp in HEK293 cells stably expressing hERG
Method: as §3
Data are presented as mean ± SEM for at least five cells from two different batches or for three independent measurements with HEK293 cells.
The concentration–inhibition relationships were analysed by plotting the normalized values of peak tail current versus peak tail steady current in the presence of the respective cumulatively applied compound concentrations (Figure 4B, C). Data points were fitted using Hill equation.

[3] = Homo sapiens, 0.5 h, read-out: Changes in APD90 in hiPSC-CMs

Sequence of Nav1.5 (Q14524 whole entry): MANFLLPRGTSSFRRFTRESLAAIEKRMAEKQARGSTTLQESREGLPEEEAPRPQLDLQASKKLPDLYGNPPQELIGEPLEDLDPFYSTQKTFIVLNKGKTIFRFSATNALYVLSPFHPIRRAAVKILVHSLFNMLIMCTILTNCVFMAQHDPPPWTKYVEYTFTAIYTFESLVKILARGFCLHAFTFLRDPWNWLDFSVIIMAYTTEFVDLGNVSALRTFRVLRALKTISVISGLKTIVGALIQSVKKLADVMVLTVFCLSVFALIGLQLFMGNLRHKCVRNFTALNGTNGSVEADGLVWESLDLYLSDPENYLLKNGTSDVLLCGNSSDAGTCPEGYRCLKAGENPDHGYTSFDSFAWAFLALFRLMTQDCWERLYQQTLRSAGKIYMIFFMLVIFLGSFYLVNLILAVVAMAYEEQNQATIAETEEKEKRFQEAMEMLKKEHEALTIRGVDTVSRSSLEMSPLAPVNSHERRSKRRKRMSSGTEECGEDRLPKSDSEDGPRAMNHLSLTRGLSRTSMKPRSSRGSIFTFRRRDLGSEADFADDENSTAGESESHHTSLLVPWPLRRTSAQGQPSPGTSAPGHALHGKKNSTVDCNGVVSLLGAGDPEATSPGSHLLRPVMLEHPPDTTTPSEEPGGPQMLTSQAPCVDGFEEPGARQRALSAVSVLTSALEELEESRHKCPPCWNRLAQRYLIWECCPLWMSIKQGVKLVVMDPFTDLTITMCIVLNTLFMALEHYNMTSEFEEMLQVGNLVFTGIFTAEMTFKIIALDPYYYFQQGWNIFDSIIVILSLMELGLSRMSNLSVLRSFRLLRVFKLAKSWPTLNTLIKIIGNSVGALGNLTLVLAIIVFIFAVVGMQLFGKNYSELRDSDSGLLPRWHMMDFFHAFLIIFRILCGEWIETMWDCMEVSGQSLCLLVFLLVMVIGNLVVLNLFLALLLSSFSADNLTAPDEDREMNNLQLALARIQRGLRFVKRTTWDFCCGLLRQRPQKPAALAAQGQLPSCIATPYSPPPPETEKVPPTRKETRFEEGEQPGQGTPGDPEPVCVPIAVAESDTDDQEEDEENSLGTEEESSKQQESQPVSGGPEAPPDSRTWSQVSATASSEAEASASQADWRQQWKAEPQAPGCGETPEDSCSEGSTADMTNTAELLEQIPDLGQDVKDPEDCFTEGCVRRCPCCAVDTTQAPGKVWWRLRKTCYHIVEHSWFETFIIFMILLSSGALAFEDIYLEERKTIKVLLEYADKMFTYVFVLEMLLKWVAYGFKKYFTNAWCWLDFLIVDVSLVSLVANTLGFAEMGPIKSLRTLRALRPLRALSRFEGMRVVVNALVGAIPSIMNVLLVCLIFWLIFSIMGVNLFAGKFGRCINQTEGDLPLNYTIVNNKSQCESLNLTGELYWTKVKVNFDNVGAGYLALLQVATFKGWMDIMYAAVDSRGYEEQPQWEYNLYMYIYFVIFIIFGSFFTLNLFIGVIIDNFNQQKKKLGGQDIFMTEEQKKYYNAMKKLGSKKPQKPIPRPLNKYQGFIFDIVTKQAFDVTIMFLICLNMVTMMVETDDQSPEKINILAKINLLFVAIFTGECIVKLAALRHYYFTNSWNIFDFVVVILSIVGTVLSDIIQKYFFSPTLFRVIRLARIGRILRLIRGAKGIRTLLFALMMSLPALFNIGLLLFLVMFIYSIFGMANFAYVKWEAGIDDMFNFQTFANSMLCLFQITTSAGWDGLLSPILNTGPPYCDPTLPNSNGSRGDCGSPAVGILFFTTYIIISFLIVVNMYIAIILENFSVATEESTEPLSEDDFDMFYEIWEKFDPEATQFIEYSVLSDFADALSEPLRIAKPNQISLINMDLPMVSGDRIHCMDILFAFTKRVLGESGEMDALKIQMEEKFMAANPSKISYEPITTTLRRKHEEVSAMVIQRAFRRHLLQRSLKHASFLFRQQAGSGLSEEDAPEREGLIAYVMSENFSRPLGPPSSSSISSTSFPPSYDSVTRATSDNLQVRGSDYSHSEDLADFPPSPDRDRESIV
Sequence of hERG channels (Q12809 whole entry): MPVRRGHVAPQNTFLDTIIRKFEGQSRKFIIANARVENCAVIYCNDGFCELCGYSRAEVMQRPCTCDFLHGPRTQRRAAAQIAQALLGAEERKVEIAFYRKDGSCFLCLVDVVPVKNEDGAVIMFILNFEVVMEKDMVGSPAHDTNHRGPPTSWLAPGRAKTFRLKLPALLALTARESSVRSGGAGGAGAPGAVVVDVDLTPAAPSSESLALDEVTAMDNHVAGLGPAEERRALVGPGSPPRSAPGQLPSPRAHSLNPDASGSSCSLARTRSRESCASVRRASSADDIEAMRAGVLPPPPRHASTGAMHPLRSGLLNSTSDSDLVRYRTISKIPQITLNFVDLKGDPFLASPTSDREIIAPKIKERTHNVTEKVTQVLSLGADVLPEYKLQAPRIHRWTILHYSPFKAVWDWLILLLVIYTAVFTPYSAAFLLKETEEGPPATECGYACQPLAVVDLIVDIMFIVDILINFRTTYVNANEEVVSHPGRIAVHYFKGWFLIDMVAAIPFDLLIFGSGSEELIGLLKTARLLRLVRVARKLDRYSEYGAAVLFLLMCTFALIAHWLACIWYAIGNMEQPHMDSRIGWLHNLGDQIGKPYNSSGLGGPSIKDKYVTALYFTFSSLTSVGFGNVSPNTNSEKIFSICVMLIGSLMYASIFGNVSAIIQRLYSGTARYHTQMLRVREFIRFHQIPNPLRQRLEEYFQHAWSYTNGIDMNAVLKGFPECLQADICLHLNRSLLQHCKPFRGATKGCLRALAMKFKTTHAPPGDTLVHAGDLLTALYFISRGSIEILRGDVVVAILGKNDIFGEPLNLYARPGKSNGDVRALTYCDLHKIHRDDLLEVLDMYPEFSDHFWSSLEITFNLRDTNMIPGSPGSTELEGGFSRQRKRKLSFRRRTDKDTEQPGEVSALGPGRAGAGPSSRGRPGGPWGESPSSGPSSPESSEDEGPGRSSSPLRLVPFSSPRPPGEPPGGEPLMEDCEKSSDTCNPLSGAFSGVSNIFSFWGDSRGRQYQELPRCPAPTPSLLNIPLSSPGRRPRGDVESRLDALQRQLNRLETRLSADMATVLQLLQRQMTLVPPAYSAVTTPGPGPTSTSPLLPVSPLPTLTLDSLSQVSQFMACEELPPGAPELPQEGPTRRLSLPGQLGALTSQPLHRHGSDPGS

SMILES: CN(CCOc1ccc(Cl)c(Cl)c1)CCc1ccccc1 [Dofe44]
- Ki (hERG potassium channels): 2.4 ± 2.2 nM
- activity at 0.01 µM (hiPSC-CMs; [3]): 90%
- activity at 0.1 µM (hiPSC-CMs; [3]): 83%
- activity at 0.3 µM (hiPSC-CMs; [3]): 87%
- activity at 1 µM (hiPSC-CMs; [3]): 92%
- EC (50% APD prolongation) (hiPSC-CMs; Homo sapiens, read-out: D150 (concentration that prolongs the AP by 50%), APD90 in hiPSC-CMs): > 0.6 µM
- Effect on APD90 / AP prolongation (in words) (hiPSC-CMs; hiPSC-CMs): did not affect APD90 even at 1 μM; also recorded: did not induce prolongation of AP
- IC50 [1]: > 100 µM
- Resting state and use-dependent block of Cav1.2 ([2]; 1 Hz trains of 50 ms pulses after 3 min incubation at rest): No use‐dependent block
- Cav1.2 IC50 (peak IBa inhibition) ([2]; rabbit, pH 7.4): > 200 µM
- Shift of Nav1.5 concentration-response curve towards lower concentrations (Nav1.5; -80 mV versus -140 mV holding potential): fivefold
- IC50 (Nav1.5; holding potential -80 mV): 4.7 ± 2 µM
- IC50 (Nav1.5; holding potential -140 mV, 0.2 Hz): 23.3 ± 1.9 µM
- IC50 (hERG channels): 38.1 ± 12.6 nM
